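Step 1: Grow cells in 96-well plates. Step 2: Expose to compound for 48 hours at 5 concentrations. Step 3: Interpolate endpoints linearly; if unreached, use highest concentration. Here, GI50 denotes the concentration required for 50% inhibition of growth.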 Active and inactive are the calls of the source. Cut-off read from the data, not from the text of the source: active = GI50 up to about 1.1 µM and inactive = higher.
Key:
Test in all cases: growth of human tumour cells (NCI), 48 h
786-0 = tested on: 786-0
A498 = tested on: A498
A549 = tested on: A549
ACHN = tested on: ACHN
BT-549 = tested on: BT-549
CAKI-1 = tested on: CAKI-1
CCRF-CEM = tested on: CCRF-CEM
COLO 205 = tested on: COLO 205
DU-145 = tested on: DU-145
EKVX = tested on: EKVX
HCT-116 = tested on: HCT-116
HCT-15 = tested on: HCT-15
HL-60 = tested on: HL-60
HOP-62 = tested on: HOP-62
HOP-92 = tested on: HOP-92
HT-29 = tested on: HT-29
Hs-578T = tested on: Hs-578T
IGROV-1 = tested on: IGROV-1
K562 = tested on: K562
KM12 = tested on: KM12
LOX IMVI = tested on: LOX IMVI
M14 = tested on: M14
MCF7 = tested on: MCF7
MDA-MB-231 = tested on: MDA-MB-231
MDA-MB-435 = tested on: MDA-MB-435
MDA-N = tested on: MDA-N
MOLT-4 = tested on: MOLT-4
Malme-3M = tested on: Malme-3M
NCI-H23 = tested on: NCI-H23
NCI-H460 = tested on: NCI-H460
NCI-H522 = tested on: NCI-H522
NCI/ADR-RES = tested on: NCI/ADR-RES
OVCAR-3 = tested on: OVCAR-3
OVCAR-4 = tested on: OVCAR-4
OVCAR-5 = tested on: OVCAR-5
OVCAR-8 = tested on: OVCAR-8
PC-3 = tested on: PC-3
RPMI-8226 = tested on: RPMI-8226
RXF 393 = tested on: RXF 393
SF-268 = tested on: SF-268
SF-295 = tested on: SF-295
SF-539 = tested on: SF-539
SK-MEL-28 = tested on: SK-MEL-28
SK-MEL-2 = tested on: SK-MEL-2
SK-MEL-5 = tested on: SK-MEL-5
SK-OV-3 = tested on: SK-OV-3
SN12C = tested on: SN12C
SNB-19 = tested on: SNB-19
SNB-75 = tested on: SNB-75
SR = tested on: SR
SW-620 = tested on: SW-620
T47D = tested on: T47D
TK-10 = tested on: TK-10
U-251 = tested on: U-251
UACC-257 = tested on: UACC-257
UACC-62 = tested on: UACC-62
UO-31 = tested on: UO-31
HCC 2998 = tested on: HCC 2998
NCI-H226 = tested on: NCI-H226

Measured: GI50

NCCc1nc(-c2nc(C(=O)O)cs2)cs1
inactive: 786-0 > 100 µM | A498 > 100 µM | A549 > 100 µM | ACHN > 100 µM | BT-549 > 100 µM | CAKI-1 > 100 µM | CCRF-CEM > 100 µM | COLO 205 > 100 µM | DU-145 > 100 µM | EKVX > 100 µM | HCT-116 > 100 µM | HL-60 > 100 µM | HOP-62 > 100 µM | HOP-92 > 100 µM | HT-29 > 100 µM | Hs-578T > 100 µM | IGROV-1 > 100 µM | K562 > 100 µM | KM12 > 100 µM | LOX IMVI > 100 µM | M14 > 100 µM | MCF7 > 100 µM | MDA-MB-231 > 100 µM | MDA-MB-435 > 100 µM | MDA-N > 100 µM | MOLT-4 > 100 µM | Malme-3M > 100 µM | NCI-H23 > 100 µM | NCI-H460 > 100 µM | NCI-H522 > 100 µM | NCI/ADR-RES > 100 µM | OVCAR-3 > 100 µM | OVCAR-4 > 100 µM | OVCAR-5 > 100 µM | OVCAR-8 > 100 µM | PC-3 > 100 µM | RPMI-8226 > 100 µM | RXF 393 > 100 µM | SF-268 > 100 µM | SF-295 > 100 µM | SF-539 > 100 µM | SK-MEL-28 > 100 µM | SK-MEL-2 > 100 µM | SK-MEL-5 > 100 µM | SK-OV-3 > 100 µM | SN12C > 100 µM | SNB-19 > 100 µM | SNB-75 > 100 µM | SR > 100 µM | SW-620 > 100 µM | T47D > 100 µM | TK-10 > 100 µM | U-251 > 100 µM | UACC-257 > 100 µM | UACC-62 > 100 µM | UO-31 > 100 µM
> 100 µM: HCT-15

NS(=O)(=O)c1ccc(NC(NC(=O)C(C(F)(F)F)C(F)(F)F)(C(F)(F)F)C(F)(F)F)cc1
> 100 µM: HCT-15
inactive: 786-0 > 100 µM | A549 > 100 µM | ACHN > 100 µM | BT-549 > 100 µM | CAKI-1 > 100 µM | CCRF-CEM > 100 µM | COLO 205 > 100 µM | DU-145 > 100 µM | EKVX > 100 µM | HCC 2998 > 100 µM | HCT-116 > 100 µM | HL-60 > 100 µM | HOP-62 > 100 µM | HOP-92 > 100 µM | HT-29 > 100 µM | Hs-578T > 100 µM | IGROV-1 > 100 µM | K562 > 100 µM | KM12 > 100 µM | LOX IMVI > 100 µM | M14 > 100 µM | MCF7 > 100 µM | MDA-MB-231 > 100 µM | MDA-MB-435 > 100 µM | MDA-N > 100 µM | MOLT-4 > 100 µM | Malme-3M > 100 µM | NCI-H226 > 100 µM | NCI-H23 > 100 µM | NCI-H460 > 100 µM | NCI-H522 > 100 µM | NCI/ADR-RES > 100 µM | OVCAR-3 > 100 µM | OVCAR-4 > 100 µM | OVCAR-5 > 100 µM | OVCAR-8 > 100 µM | PC-3 > 100 µM | RPMI-8226 > 100 µM | RXF 393 > 100 µM | SF-268 > 100 µM | SF-295 > 100 µM | SF-539 > 100 µM | SK-MEL-28 > 100 µM | SK-MEL-2 > 100 µM | SK-MEL-5 > 100 µM | SK-OV-3 > 100 µM | SN12C > 100 µM | SNB-19 > 100 µM | SNB-75 > 100 µM | SR > 100 µM | SW-620 > 100 µM | T47D > 100 µM | U-251 > 100 µM | UACC-257 > 100 µM | UACC-62 > 100 µM | UO-31 > 100 µM
active: TK-10 0.305 µM

— ChEMBL document CHEMBL1201862, “PubChem BioAssay data set” (2004)
